In patent US12195490B2, “STRAD-binding agents and uses thereof” (The Regents of the University of California, priority 2020, dated 2025):
Where a name gives a salt, the structure may show the parent alone.

test system: ACHN cell line; experiment: drug screen of the SelleckChem kinase inhibitor library with and without 5 uM SU-329, Cell-Titer Glo after 5 days; type: cell-based; conditions: kinase inhibitor at 200 nM with and without 5 uM SU329; ACHN cell line; 5 days; Cell-Titer Glo

Compound | log2fc
Cc1cnc(-c2cnc(NCCNc3ccc(C#N)cn3)nc2-c2ccc(Cl)cc2Cl)[nH]1.Cl [CHIR-99021 (CT99021) HCl] | 0.9577
Cc1cnc(-c2cnc(NCCNc3ccc(C#N)cn3)nc2-c2ccc(Cl)cc2Cl)[nH]1 [CHIR-99021 (CT99021)] | 1.316
C=CC(=O)Nc1cccc(Nc2nc(Nc3ccc(Oc4ccnc(C(=O)NC)c4)cc3)ncc2F)c1 [CNX-774] | −0.2519
C=CC(=O)Nc1cccc(Nc2nc(Nc3ccc(NC4CN(CCF)C4)cc3OC)ncc2C(F)(F)F)c1 [CNX-2006] | 0.1218
COCCOc1ccc2c(c1)ncn2-c1ccc2cccc(N3CCC(N)CC3)c2n1 [CP-673451] | 0.4234
COCC(=O)NC/C=C/c1ccc2ncnc(Nc3ccc(Oc4ccc(C)nc4)c(C)c3)c2c1 [CP-724714, reference compound] | 0.2836
C#Cc1cccc(Nc2ncnc3cc(OC)c(OCCCCCCC(=O)NO)cc23)c1 [CUDC-101, reference compound] | 0.1269
COc1ccc(-c2nc(N3CCOCC3)c3sc(CN(C)c4ncc(C(=O)NO)cn4)cc3n2)cn1 [CUDC-907] | 0.5895
CN1CCCN(C(=O)c2cccc(-c3ccc(/C=C4/C(=O)Nc5ccc(Cl)cc54)o3)c2)CC1.Cl [CX-6258 HCl] | −0.355
Cc1nc(N)sc1-c1ccnc(Nc2ccc(N3CCOCC3)cc2)n1 [CYC116] | −0.814
CC(C)(C)NS(=O)(=O)c1cncc(-c2cc(F)c3nc(N)nn3c2)c1 [CZC24832] | 0.2139
COc1cc2nccc(Oc3ccc(NC(=O)C4(C(=O)Nc5ccc(F)cc5)CC4)cc3)c2cc1OC [Cabozantinib (XL184, BMS-907351)] | 0.001197
COc1cc2nccc(Oc3ccc(NC(=O)C4(C(=O)Nc5ccc(F)cc5)CC4)cc3)c2cc1OC.O=C(O)C[C@H](O)C(=O)O [Cabozantinib malate (XL184)] | 0.5713
COc1cc2c(Oc3ccc4[nH]c(C)cc4c3F)ncnc2cc1OCCCN1CCCC1 [Cediranib (AZD2171)] | 0.01224
Cc1cc(Nc2ncc(Cl)c(Nc3ccccc3S(=O)(=O)C(C)C)n2)c(OC(C)C)cc1C1CCNCC1 [Ceritinib (LDK378)] | 0.2988
Cc1cc(O)c2c(c1)C(=O)c1cccc(O)c1C2=O [Chrysophanic Acid] | −0.1902
CC1(COc2ccc3c(c2)ncn3-c2ccc3cccc(N4CCC(N)CC4)c3n2)COC1 [Crenolanib (CP-868596)] | 0.3666
C[C@@H](Oc1cc(-c2cnn(C3CCNCC3)c2)cnc1N)c1c(Cl)ccc(F)c1Cl [Crizotinib (PF-02341066)] | 0.196
CCN1CCN(Cc2ccc(C(=O)Nc3ccc(C)c(Oc4ccc5c(c4)CC(=O)N5)c3)cc2C(F)(F)F)CC1 [DDR1-IN-1] | −0.4228
CC(C)(C)c1nc(-c2cccc(NS(=O)(=O)c3c(F)cccc3F)c2F)c(-c2ccnc(N)n2)s1 [Dabrafenib (GSK2118436), dabrafenib, reference compound] | −0.314
COc1cc2ncnc(Nc3ccc(F)c(Cl)c3)c2cc1NC(=O)/C=C/CN1CCCCC1 [Dacomitinib (PF299804, PF299)] | 0.3997
CO[C@@H](C(=O)N1Cc2[nH]nc(NC(=O)c3ccc(N4CCN(C)CC4)cc3)c2C1)c1ccccc1 [Danusertib (PHA-739358)] | −0.1537
O=c1ccc2ccc(O)c(O)c2o1 [Daphnetin] | 0.08794

Compound | log2fc
Cc1nc(Nc2ncc(C(=O)Nc3c(C)cccc3Cl)s2)cc(N2CCN(CCO)CC2)n1 [Dasatinib, dasatinib, reference compound] | −0.196
CCC[C@H](NC(=O)/C(C#N)=C/c1cccc(Br)n1)c1ccccc1 [Degrasyn (WP1130)] | −0.132
CCc1cnn2c(NCc3ccc[n+]([O-])c3)cc(N3CCCC[C@H]3CCO)nc12 [Dinaciclib (SCH727965)] | 1.402
Cc1ccc(-n2nc(C(C)(C)C)cc2NC(=O)Nc2ccc(OCCN3CCOCC3)c3ccccc23)cc1 [Doramapimod (BIRB 796)] | −0.5477
CC(O)C(=O)O.CC(O)C(=O)O.CN1CCN(c2ccc3nc(-c4c(N)c5c(F)cccc5[nH]c4=O)[nH]c3c2)CC1 [Dovitinib (TKI-258) Dilactic Acid] | −0.3598
CN1CCN(c2ccc3nc(-c4c(N)c5c(F)cccc5[nH]c4=O)[nH]c3c2)CC1 [Dovitinib (TKI-258, CHIR-258)] | 0.4746
C[C@H](Nc1ncnc2nc[nH]c12)c1cc2cccc(Cl)c2c(=O)n1-c1ccccc1 [Duvelisib (IPI-145, INK1197)] | −0.2128
CCn1c2ccccc2c2cc(Nc3ccnc(NCCCN4CCOCC4)n3)ccc21 [EHop-016] | 0.1156
Cc1cc(Nc2cc(N3CCN(C)CC3)nc(/C=C/c3ccccc3)n2)n[nH]1 [ENMD-2076] | 0.6799
CCOc1cc(C(=O)N2CCC(N3CCN(C)CC3)CC2)ccc1Nc1ncc2c(n1)N(C1CCCC1)c1ccccc1C(=O)N2C [ERK5-IN-1] | 0.1031
Cn1cc(C2=C(c3cn(C4CCN(Cc5ccccn5)CC4)c4ccccc34)C(=O)NC2=O)c2ccccc21 [Enzastaurin (LY317615)] | 0.5814
CO[C@H]1C[C@@H]2CC[C@@H](C)[C@@](O)(O2)C(=O)C(=O)N2CCCC[C@H]2C(=O)O[C@H]([C@H](C)C[C@@H]2CC[C@@H](OCCO)[C@H](OC)C2)CC(=O)[C@H](C)/C=C(\C)[C@@H](O)[C@@H](OC)C(=O)[C@H](C)C[C@H](C)/C=C/C=C/C=C/1C [Everolimus (RAD001)] | −1.364
CCn1c(=O)c(-c2ccc(-c3cncs3)cc2Cl)cc2cnc(Nc3ccc(N4CCN(C)CC4)cc3)nc21 [FRAX597] | −0.0718
Cl.O=S(=O)(c1cccc2cnccc12)N1CCCNCC1 [Fasudil (HA-1077) HCl] | 0.1457
Cc1cnc(Nc2ccc(OCCN3CCCC3)cc2)nc1Nc1cccc(S(=O)(=O)NC(C)(C)C)c1 [Fedratinib (SAR302503, TG101348)] | −0.003444
CCCCCCCCc1ccc(CCC(N)(CO)CO)cc1.Cl [Fingolimod (FTY720) HCl] | 0.7051
CN1CC[C@H](c2c(O)cc(O)c3c(=O)cc(-c4ccccc4Cl)oc23)[C@H](O)C1 [Flavopiridol (Alvocidib)] | 1.05
CN1CC[C@H](c2c(O)cc(O)c3c(=O)cc(-c4ccccc4Cl)oc23)[C@H](O)C1 [Flavopiridol HCl] | 1.693
COc1cc2c(Oc3ccc(NC(=O)C4(C(=O)Nc5ccc(F)cc5)CC4)cc3F)ccnc2cc1OCCCN1CCOCC1 [Foretinib (GSK1363089)] | −0.1359
COc1cc(Nc2ncc(F)c(Nc3ccc4c(n3)N(COP(=O)(O)O)C(=O)C(C)(C)O4)n2)cc(OC)c1OC [Fostamatinib (R788)] | 0.7242
OCCn1cc(-c2ccc3c(c2)CC/C3=N\O)c(-c2ccncc2)n1 [GDC-0879] | 0.3592
CNc1nc(Nc2cn(C(C)(C)C#N)nc2C)ncc1C(F)(F)F [GNE-0877] | 0.3098
CNc1nc(Nc2cnn([C@H]3CCN(C4COC4)C[C@@H]3F)c2Cl)ncc1C(F)(F)F [GNE-9605] | 0.4092

Compound | log2fc
NC(=O)c1cccc(-c2cc(Nc3ccc(OC(F)(F)F)cc3)ncn2)c1 [GNF-2] | 0.1337
CC1=C(C(=O)Nc2cc3cn[nH]c3cc2F)C(c2ccc(C(F)(F)F)cc2)CC(=O)N1 (stereo not drawn) [GSK429286A] | −0.03939
C[C@@H](Oc1cc(-n2cnc3ccc(CN4CCN(C)CC4)cc32)sc1C(N)=O)c1ccccc1C(F)(F)F [GSK461364] | 0.9925
O=C(O)c1ccc(-c2c[nH]c3ncc(-c4ccccc4)cc23)cc1C1CCCC1 [GSK650394] | 0.3205
CCn1c(-c2nonc2N)nc2c(C#CC(C)(C)O)ncc(OC[C@H]3CCCNC3)c21 [GSK690693] | −0.5999
CNC(=O)c1c(F)cccc1Nc1nc(Nc2cc3c(cc2OC)CCN3C(=O)CN(C)C)nc2[nH]ccc12 [GSK1838705A] | −0.03081
CCc1cc(Nc2nccc(-c3c(-c4ccc(OC)c(C(=O)Nc5c(F)cccc5F)c4)nc4ccccn34)n2)c(OC)cc1N1CCC(N2CCN(S(C)(=O)=O)CC2)CC1 [GSK1904529A] | 0.6211
CNc1nc(-c2ccc3c(N)n[nH]c3c2)cc(N2C[C@@H](C(=O)NC3CCCCC3)CC[C@H]2C)n1 [GSK2334470] | −1.111
O=C1Nc2ccc(I)cc2/C1=C/c1cc(Br)c(O)c(Br)c1 [GW5074] | 0.4071
Cn1cc(/C=C2\C(=O)Nc3cccnc32)c2ccccc21 [GW441756] | −0.09333
Cc1cc(Nc2cc(CN3CCOCC3)c3nc(C)c(Cc4ccc(Cl)cc4F)n3n2)n[nH]1 [Gandotinib (LY2784544)] | 1.04
COc1cc2ncnc(Nc3ccc(F)c(Cl)c3)c2cc1OCCCN1CCOCC1 [Gefitinib (ZD1839)] | 0.4905
O=c1c(-c2ccc(O)cc2)coc2cc(O)cc(O)c12 [Genistein] | 0.05262
COc1ccc2c(c1)c(C1=C(c3c[nH]c4ccccc34)C(=O)NC1=O)cn2CCCN(C)C [Go 6983] | 0.08992
CN1CCN(C2CCN(C(=O)Nc3cc(Oc4ccc(NC(=O)C5(C(=O)Nc6ccc(F)cc6)CC5)c(F)c4)ccn3)CC2)CC1 [Golvatinib (E7050)] | −0.1341
Cl.Cl.O=S(=O)(NCCNC/C=C/c1ccc(Br)cc1)c1cccc2cnccc12 [H 89 2HCl] | −0.01404
COc1ccc(S(=O)(=O)N(C(C)=O)c2ccccc2/C=C/c2cc[n+]([O-])cc2)cc1 [HMN-214] | 0.2477
CCOC(=O)c1cnc2ccc(-c3cncc(NS(=O)(=O)c4ccccc4)c3)cn12 [HS-173] | 0.4717
Cc1nc(Nc2cnn(C3CCNCC3)c2)nc2c1N(C)C(=O)c1cc3ccccc3cc1N2C [HTH-01-015] | 0.3141
CCS(=O)(=O)Nc1ccc2c(c1)/C(=C(/Nc1ccc(CN3CCCCC3)cc1)c1ccccc1)C(=O)N2 [Hesperadin] | 0.1006
C=CCc1ccc(O)c(-c2ccc(O)c(CC=C)c2)c1 [Honokiol] | 0.09484
O=C(c1ccc(Nc2nccc(-c3cc4ccccc4s3)n2)cc1)N1CCC(N2CCCC2)CC1 [IKK-16 (IKK Inhibitor VII)] | −0.1183
O=C(Nc1cc(C(F)(F)F)cc(C(F)(F)F)c1)c1cc(Cl)ccc1O [IMD 0354] | 0.2086
